Assay results taken from patent publication US20220152048A1, “Botanical Extracts and Compounds from Castanea Plants and Methods of Use” (Emory University, priority 2019, published 2022).
≈ marks a conversion by molar mass, not a printed value.

Experiments:
[1] = tested on: Staphylococcus aureus reporter strains of agr (types I-IV: AH1677, AH430, AH1747, AH1872); experiment: Quorum quenching assay with agr P3-YFP reporter strains (fluorescence); assay type: cell-based; conditions: read-out: IC50 for inhibition of fluorescence across agr reporter strains
Text: Hydroperoxy-cycloartanes were isolated from the methanolic extract of the leaves of Castanea sativa, a substantial, long-lived deciduous tree that produces an edible seed, the chestnut. 224C-F2c-PF42-SF6 is a mixture of a cycloartane with a hydroperoxy group at the terminus of its alkyl chain and a carboxylic acid and methyl group replacing the gem-dimethyl group (1a) and a cycloartane with a terminal alkene and carboxylic acid in the S configuration at C24 (1b). 224C-F2c-PF42-SF7 is a cycloartane with a terminal alkene and carboxylic acid in the R configuration at C24 (2). […] The compounds 2 and SF6 were evaluated for the ability to inhibit fluorescence of Staphylococcus aureus reporter strains of agr, the main gene regulating quorum sensing. Additionally, 2 and SF6 were evaluated for cytotoxicity against human immortalized keratinocytes (HaCaT).
After eluting from the column, 224C-F2 was split into parts a-d. […] A screen against S. aureus reporter strains of AIP-induced agr:P3 activation representing all four agr subtypes functioned as a preliminary readout of quorum sensing inhibition and the bioassay which guided fractionation. […]

[2] = tested on: Staphylococcus aureus reporter strain of agr I expression (AH1677); experiment: agr I reporter strain AH1677 dose range (FIG. 3); assay type: cell-based; conditions: strain AH1677, fluorescence (FLD) of the gene reporter
Description: Strain AH1677 was treated with a range of doses of SF6, SF7, and a combination of the two. OD refers to growth, while FLD refers to fluorescence of the gene reporter. […] The combined effects of SF6 and SF7 are additive; a dose 4 μg/mL SF6+4 μg/mL SF7 has the same effect as an 8 μg/mL dose of either.
(§1) Fractions were tested for quorum quenching activity against all four agr types agr P3-YFP reporter strains AH1677 (type I), AH430 (type II), AH1747 (type III), and AH1872 (type IV). Sample stock solutions were dissolved in DMSO at a concentration of 2 mg/mL. Overnight cultures of reporter strains that were grown in TSB supplemented with chloramphenicol (Cam) were inoculated into fresh TSB containing Cam to achieve a working culture OD of 0.0006. Working culture was added to 96-well microtiter plates (Costar 3603) as was sample in order to achieve a final well volume of 200 μL. Mock vehicle (DMSO) treatments were included for each reporter strain. Microtiter plates were incubated at 37° C. with shaking (1250 rpm) in a Stuart SI505 incubator (Bibby Scientific, Burlington, N.J.) with a humidified chamber. Fluorescence (top reading, 493 nm excitation, 535 nm emission, gain 60) and optical density (OD) readings at 600 nm were recorded at 18 h using a Tecan Systems (San Jose, Calif.) Infinite M200 plate reader.

[3] = tested on: S. aureus; experiment: Growth (optical density) of S. aureus; assay type: cell-based, Staphylococcus aureus; conditions: at the IC50 concentration of 8 μg/mL
Description: as §1

SMILES: C=C(C)[C@H](CC[C@H](C)[C@@H]1CC[C@]2(C)[C@H]3[C@H](O)C[C@@H]4[C@@](C)(C(=O)O)[C@H](O)CC[C@]45C[C@]35CC[C@@]12C)OO [Compound 2]
- IC50 [1]: 8 µg/mL (≈ 15.9 µM)
- activity in agr I reporter strain as compared to parent fraction and positive control 224C-F2c [2]: slightly reduced
- growth inhibitory effects on S. aureus [3]: no growth inhibitory effects
